Test results taken from US20120134948A1, “ANTIMICROBIAL ETHER GUANIDINES” (EVONIK GOLDSCHMIDT GMBH, priority 2009, published 2012).

How the values were obtained:
Assay type in all cases: cell-based
[1] = test system: Candida albicans; assay: Antimicrobial activity, live microbial count (CFU) after contact in suspension
Experimental: (§1) The test microorganisms were inoculated from a strain culture into an agar-containing Caso medium (Merck, Darmstadt, Germany) and incubated for 24 h to 48 hours at 25 to 37° C., depending on the microorganism. A Caso slanted agar tube was inoculated with this preculture and again incubated under identical conditions.
(§2) To prepare the microorganism suspension to be tested, the microorganisms were washed off with 5 ml of phosphate-buffer saline (PBS, 50 mM potassium phosphate pH6, 100 mM NaCl), made up to 12.5 ml with PBS and resuspended by vortexing. To carry out the following test, this microorganism suspension was diluted to a microbial count of from 2U+5 to 8U+5.
(§3) The products to be tested made as a stock solution; they contained 10 g of ethanol, 0.68 g of macrogol glycerol hydroxystearate 40 (Cremophor® RH40, Omikron, Neckarwestheim, Germany), 1 g of the active substance to be tested and 38.32 g of double-distilled water. This solution was mixed with the microorganism suspension at a ratio of 1:1 in the test and gave an active substance concentration in the test of 1%. If it was intended to test a lower active substance concentration than 1%, the stock solution of the active substance was made up at a correspondingly lower concentration. The substances tested were the ether guanidine of example 1, and double distilled water by way of negative control.
(§4) To carry out the test, 1 ml-Eppendorf cubes were filled with 500 μl of microorganism suspension and with 500 μl stock solution and the contents were mixed carefully. After 20 min, 1 h and 3 h, respectively, 10 μl were removed from the tubes, and the live microbial count (colony-forming units, CFU) were determined by plating out various dilution of these test mixtures on Caso agar.

[2] = test system: Corynebacterium xerosis; assay: as above
Experimental: as §1, §2, §3, §4

[3] = test system: Malassezia furfur; assay: as above
Experimental: as §1, §2, §3, §4

[4] = test system: Propionibacterium acnes; assay: as above
Experimental: as §1, §2, §3, §4

[5] = test system: Staphylococcus epidermidis; assay: as above
Experimental: as §1, §2, §3, §4

[6] = test system: Streptococcus mutans; assay: as above
Experimental: as §1, §2, §3, §4

[7] = test system: test microorganisms; assay: Antimicrobial activity test, overall statement; settings: overall observation; microbial count in negative controls unchanged
Experimental: as §1, §2
The products to be tested made as a stock solution; they contained 10 g of ethanol, 0.68 g of macrogol glycerol hydroxystearate 40 (Cremophor® RH40, Omikron, Neckarwestheim, Germany), 1 g of the active substance to be tested and 38.32 g of double-distilled water. […]
as §4

[8] = 1% Ex. 1, 0 min (starting count)

“C12-15-oxypropylguanidinium chloride [Ex. 1]” was tested, and the “CFU/ml 0 min” value ([1]; 0.01% Ex. 1, 0 min (starting count)) was 3.9E+5 CFU/ml, the “CFU/ml 20 min” value ([1]; 0.01% Ex. 1, 20 min) was 4.7E+5 CFU/ml and the “CFU/ml 60 min” value ([1]; 0.01% Ex. 1, 60 min) was 2.2E+5 CFU/ml. The “CFU/ml 180 min” value ([1]; 0.01% Ex. 1, 180 min) was 6.1E+4 CFU/ml, the “CFU/ml 0 min” value ([1]; 0.1% Ex. 1, 0 min (starting count)) was 3.9E+5 CFU/ml and the “CFU/ml 20 min” value ([1]; 0.1% Ex. 1, 20 min) was 5.5E+5 CFU/ml. The “CFU/ml 60 min” value ([1]; 0.1% Ex. 1, 60 min) was 4.3E+4 CFU/ml, the “CFU/ml 180 min” value ([1]; 0.1% Ex. 1, 180 min) was under 2.0E+2 CFU/ml and the “CFU/ml 0 min” value [1, 8] was 3.9E+5 CFU/ml. For the same substance, the “CFU/ml 20 min” value ([1]; 1% Ex. 1, 20 min) was under 2.0E+2 CFU/ml, the “CFU/ml 60 min” value ([1]; 1% Ex. 1, 60 min) was under 2.0E+2 CFU/ml and the “CFU/ml 180 min” value ([1]; 1% Ex. 1, 180 min) was under 2.0E+2 CFU/ml. For the same substance, the “CFU/ml 0 min” value [2, 8] was 1.7E+5 CFU/ml, the “CFU/ml 20 min” value ([2]; 1% Ex. 1, 20 min) was under 2.0E+2 CFU/ml and the “CFU/ml 60 min” value ([2]; 1% Ex. 1, 60 min) was under 2.0E+2 CFU/ml. For the same substance, the “CFU/ml 180 min” value ([2]; 1% Ex. 1, 180 min) was under 2.0E+2 CFU/ml, the “CFU/ml 0 min” value [3, 8] was 1.4E+5 CFU/ml and the “CFU/ml 20 min” value ([3]; 1% Ex. 1, 20 min) was under 2.0E+2 CFU/ml. For the same substance, the “CFU/ml 60 min” value ([3]; 1% Ex. 1, 60 min) was under 2.0E+2 CFU/ml, the “CFU/ml 180 min” value ([3]; 1% Ex. 1, 180 min) was under 2.0E+2 CFU/ml and the “CFU/ml 0 min” value [4, 8] was 2.0E+5 CFU/ml. The “CFU/ml 20 min” value ([4]; 1% Ex. 1, 20 min) was under 2.0E+2 CFU/ml, the “CFU/ml 60 min” value ([4]; 1% Ex. 1, 60 min) was under 2.0E+2 CFU/ml and the “CFU/ml 180 min” value ([4]; 1% Ex. 1, 180 min) was under 2.0E+2 CFU/ml. For the same substance, the “CFU/ml 0 min” value [5, 8] was 1.2E+5 CFU/ml, the “CFU/ml 20 min” value ([5]; 1% Ex. 1, 20 min) was under 2.0E+2 CFU/ml and the “CFU/ml 60 min” value ([5]; 1% Ex. 1, 60 min) was under 2.0E+2 CFU/ml. For the same substance, the “CFU/ml 180 min” value ([5]; 1% Ex. 1, 180 min) was under 2.0E+2 CFU/ml, the “CFU/ml 0 min” value [6, 8] was 3.2E+5 CFU/ml and the “CFU/ml 20 min” value ([6]; 1% Ex. 1, 20 min) was under 2.0E+2 CFU/ml. The “CFU/ml 60 min” value ([6]; 1% Ex. 1, 60 min) was under 2.0E+2 CFU/ml, the “CFU/ml 180 min” value ([6]; 1% Ex. 1, 180 min) was under 2.0E+2 CFU/ml and the antimicrobial activity [7] was “pronounced antimicrobial activity”.
